Read-outs that look alike come from different tables or passages of the source.
How the values were obtained:
[1] = tested on: respiratory and cardiocirculatory activity; conditions: rabbit; for convulsive phenomena: in vivo, iv
[2] = tested on: Mouse; conditions: cited from earlier work
[3] = Convulsivant effect on mouse; conditions: mouse, in vivo, po
[4] = tested on: mouse; assay: Convulsivant effect on mouse; conditions: for stimulant action on the CNS indicated by the ratio LD50/CD50: mouse, in vivo
[5] = tested on: toxicity of sodium Pentobarbital; assay: "Life-saving" effect: influence on the toxicity of sodium Pentobarbital; conditions: for PR (ratio between the LD50 of Pentobarbital with and without pre-treatment with the stimulant): mouse, in vivo
[6] = Stimulating activity on the CNS (analeptic activity, ED50); assay type: in vivo
[7] = Acute toxicity in rat; set-up: species or system rats Sprague-Dauley; conditions: in vivo, read-out: LD50 and F.L.
Description: The test has been performed on Swiss mice of the weight of 20-22 g and on rats Sprague-Dauley of the weight of 120-130 g, subdivided in groups comprising 5 male and 5 female animals. The new drugs have been administered to animals hungry since 15-18 hours, both by oral and i.p.route. The LD50 values have been determined according to Litchfield and Wilcoxon (J.Pharmacol.96,99,1949). The results are reported in the following Table 1, in comparison with LD50 value for Dimefline.

[8] = tested on: respiratory depression induced by morphine; conditions: rabbit
[9] = tested on: mouse; conditions: in vivo
[10] = Acute toxicity in mouse; conditions: mouse, in vivo
[11] = tested on: Mouse; assay: Acute toxicity in mouse; conditions: in words
[12] = tested on: rat; assay: Chronic toxicity in rat
[13] = rat, 5 and 10 mg/kg, 5 times/week over 12 weeks

COc1ccc2c(=O)c(C)c(-c3ccccc3)oc2c1CN(C)C [Dimefline]
convulsive phenomena [1]: several cases showing convulsive phenomena
LD50 and F.L. ([2]; i.p., Setnikar, J.Pharmacol.128, 176, 1960): 4.8 (4.6-5.0) mg/KG
LD50 and F.L. ([2]; in vivo, po): 11.9 (10.3-13.8) mg/KG
LD50 and L.F. ([2]; in vivo): 11,9 (10,3-13,8) mg/Kg
TD50 [3]: 8.9 mg/kg
start of the convulsivant effect ([4]; in comparison with PV1, in words): starts at by far lower doses
stimulant action on the CNS indicated by the ratio LD50/CD50 [4]: equivalent for the two drugs
PR (ratio between the LD50 of Pentobarbital with and without pre-treatment with the stimulant) [5]: 1,27

COc1ccc2c(=O)c(-c3ccccc3)c(-c3ccc(C)cc3)oc2c1CN(C)C [PV1]
ED50 [6]: 5 mg/kg
LD50 ([7]; ip): 22.5 mg/kg
LD50 ([7]; po, os): 76.4 mg/kg
respiratory amplitude and frequency ([1]; i.v. 1.25 - 2.5-5 mg/kg, without morphine): constantly reduced the gradual diminution of the respiratory amplitude and frequency
convulsive phenomena [1]: no convulsive phenomenon was detected
antagonism of the intermittent breath of Sheyne-Stoches ([8]; i.v. 1.25 mg/kg, after morphine 10 mg/kg): uneffective
reinstatement of normal respiratory amplitude and frequency ([8]; i.v. 2.5 mg/kg, after morphine 10 mg/kg, repeated administration needed): effective to reinstate normal values of respiratory amplitude and frequency, but needed repeated administration
reinstatement of normal respiratory amplitude and frequency ([8]; i.v. 5 mg/kg, after morphine 10 mg/kg, only one administration): quite effective
cardiocirculatory conditions ([8]; in vivo, iv): not remarkably affected
R(LD50 /CD50) [9]: 1,38
LD50 [10]: 80 mg/kg
LD50 ([10]; ip): 28.2 mg/kg
LD50 ([10]; po): 80 mg/kg
acute toxicity compared with Dimefline [11]: by far less toxic than Dimefline
HB ([12]; 5 mg/Kg, 12 weeks): 14,88 ± 0,36%
Hemazies ([12]; 5 mg/Kg, 12 weeks): 7,38 ± 0,21 10^6 /mm^3
Leucocytes ([12]; 5 mg/Kg, 12 weeks): 17,04 ± 1,36 10^3 /mm^3
Leucocytic formula: bas ([12]; 5 mg/Kg, 12 weeks): 0
Leucocytic formula: eosin ([12]; 5 mg/Kg, 12 weeks): 0,9
Leucocytic formula: linf. ([12]; 5 mg/Kg, 12 weeks): 77,6
Leucocytic formula: monoc. ([12]; 5 mg/Kg, 12 weeks): 7,9
Leucocytic formula: neutr. ([12]; 5 mg/Kg, 12 weeks): 13,6
analysis of urine: Hemoglobin ([12]; 5 mg/kg): 1(+)
analysis of urine: Proteins ([12]; 5 mg/kg): 6(+)
analysis of urine: Residue ([12]; 5 mg/kg): normal
relative average weight: Brain ([12]; 5 mg/kg): 579,6 ± 24,5 mg/100 g of body weight
relative average weight: Heart ([12]; 5 mg/kg): 289,9 ± 11,2 mg/100 g of body weight
relative average weight: Liver ([12]; 5 mg/kg): 3012 mg/100 g of body weight
relative average weight: Loins ([12]; 5 mg/kg): 658,5 ± 26,4 mg/100 g of body weight
relative average weight: Spleen ([12]; 5 mg/kg): 304,2 ± 16,6 mg/100 g of body weight
Azotemia ([12]; 5 mg/kg, 12 weeks): 15,7 ± 0,5 mg/100 ml
Glycemia ([12]; 5 mg/kg, 12 weeks): 87,8 ± 3,9 mg/100 ml
SGOT ([12]; 5 mg/kg, 12 weeks): 12,9 ± 0,8 mU/ml
SGPT ([12]; 5 mg/kg, 12 weeks): 12,1 ± 0,6 mU/ml
HB ([12]; 10 mg/Kg, 12 weeks): 15,02 ± 0,42%
Hemazies ([12]; 10 mg/Kg, 12 weeks): 7,40 ± 0,20 10^6 /mm^3
Leucocytes ([12]; 10 mg/Kg, 12 weeks): 16,70 ± 1,70 10^3 /mm^3
Leucocytic formula: bas ([12]; 10 mg/Kg, 12 weeks): 0
Leucocytic formula: eosin ([12]; 10 mg/Kg, 12 weeks): 0,7
Leucocytic formula: linf. ([12]; 10 mg/Kg, 12 weeks): 77,8
Leucocytic formula: monoc. ([12]; 10 mg/Kg, 12 weeks): 9,4
Leucocytic formula: neutr. ([12]; 10 mg/Kg, 12 weeks): 12,1
analysis of urine: Hemoglobin ([12]; 10 mg/kg): 2(+)
analysis of urine: Residue ([12]; 10 mg/kg): normal
relative average weight: Brain ([12]; 10 mg/kg): 583,7 ± 19,8 mg/100 g of body weight
relative average weight: Heart ([12]; 10 mg/kg): 288,8 ± 11,3 mg/100 g of body weight
relative average weight: Liver ([12]; 10 mg/kg): 3036,5 mg/100 g of body weight
relative average weight: Loins ([12]; 10 mg/kg): 672,8 ± 29,6 mg/100 g of body weight
relative average weight: Spleen ([12]; 10 mg/kg): 303,7 ± 13,5 mg/100 g of body weight
Azotemia ([12]; 10 mg/kg, 12 weeks): 32,5 ± 1,6 mg/100 ml
Glycemia ([12]; 10 mg/kg, 12 weeks): 80,3 ± 4,1 mg/100 ml
SGOT ([12]; 10 mg/kg, 12 weeks): 12,3 ± 0,5 mU/ml
SGPT ([12]; 10 mg/kg, 12 weeks): 10,4 ± 0,7 mU/ml
deaths [12, 13]: No death has been registered
increase in the weight of the treated animals [12, 13]: identical to that of the controls
intolerance of the drug [12, 13]: No intolerance of the drug has been noted
autopsy ([12]; rat, 5 and 10 mg/kg, 12 weeks): no lesion of the different organs
hematologic and hematochemical tests ([12]; rat, 5 and 10 mg/kg, 12 weeks, vs controls, in words): do not show significant difference between controls and treated animals
TD50 [3]: 58 mg/kg
stimulant action on the CNS indicated by the ratio LD50/CD50 [4]: equivalent for the two drugs
reduction of the toxicity of Pentobarbital ([5]; equi-toxic doses, vs Dimefline, in words): reduces the toxicity of Pentobarbital much more than Dimefline
PR (ratio between the LD50 of Pentobarbital with and without pre-treatment with the stimulant) [5]: 1,39
